Measured values published in ChEMBL document CHEMBL1201862, “PubChem BioAssay data set” (2004).
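Growth conditions: 96-well plates. Treatment: test compound, 48 hours, 5 concentrations. Analysis: linear interpolation between bracketing concentrations; unreached endpoints set to highest concentration. Here, GI50 denotes the concentration required for 50% inhibition of growth.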 The source made the active and inactive calls. No stated cut-off is given here; in the data, active = GI50 up to about 1.1 µM and inactive = higher.

Key:
Assay in all cases: DTP human tumour cell line panel, 48 h
[1] = test system: DU-145
[2] = test system: SW-620
[3] = test system: MDA-MB-435
[4] = test system: LOX IMVI
[5] = test system: KM12
[6] = test system: MOLT-4
[7] = test system: SN12C
[8] = test system: CCRF-CEM
[9] = test system: COLO 205
[10] = test system: UACC-62
[11] = test system: SF-295
[12] = test system: NCI-H460
[13] = test system: M14
[14] = test system: ACHN
[15] = test system: HCT-116
[16] = test system: A549
[17] = test system: NCI/ADR-RES
[18] = test system: SK-MEL-2
[19] = test system: HCC 2998

Measured: GI50

N#Cc1cc(-c2nc3c(F)cccc3s2)ccc1N
inactive: [1] > 100 µM | [2] > 100 µM | [3] 45.5 µM | [4] > 100 µM | [5] 65.3 µM | [6] > 100 µM | [7] > 100 µM | [8] 85.5 µM | [9] 71.4 µM | [10] > 100 µM | [11] > 100 µM | [12] 20.5 µM | [13] > 100 µM | [14] > 100 µM | [15] > 100 µM | [16] > 100 µM | [17] > 100 µM

COc1cc2c(cc1OC)[C@@](C)(C(O)C(O)C(C)(C)O)NCC2 (some centres not stated)
inactive: [1] > 100 µM | [18] > 100 µM | [3] > 100 µM | [4] > 100 µM | [6] > 100 µM | [7] > 100 µM | [8] > 100 µM | [9] > 100 µM | [10] > 100 µM | [11] > 100 µM | [13] > 100 µM | [14] > 100 µM | [15] > 100 µM | [16] > 100 µM | [17] > 100 µM

O=C(/C=C/c1ccccc1)/C=N/N1C(=S)N(c2ccccc2)C(=N\c2ccccc2)/C1=N/c1ccccc1
inactive: [1] > 100 µM | [18] > 100 µM | [2] > 100 µM | [5] > 100 µM | [6] > 100 µM | [7] > 100 µM | [9] > 100 µM | [10] > 100 µM | [19] > 100 µM | [11] > 100 µM | [12] 58.7 µM | [13] > 100 µM | [14] > 100 µM | [15] 43.1 µM | [16] > 100 µM | [17] > 100 µM

Cc1cn2cc(-c3cccs3)nc2s1
inactive: [1] > 40.4 µM | [18] > 100 µM | [2] > 100 µM | [3] > 100 µM | [4] > 45.9 µM | [5] 43.9 µM | [6] 58.7 µM | [7] > 100 µM | [8] 54.6 µM | [9] > 95.5 µM | [10] > 100 µM | [19] 63.4 µM | [11] > 100 µM | [12] > 100 µM | [13] > 78.3 µM | [14] > 88.5 µM | [15] > 100 µM | [16] > 72.1 µM

O=C(CSc1nnc(-c2ccc(/N=C\c3ccc(Cl)cc3)cc2)o1)Nc1cccc(Cl)c1
inactive: [18] > 100 µM | [2] > 100 µM | [4] > 100 µM | [5] > 100 µM | [6] > 100 µM | [7] > 100 µM | [8] > 100 µM | [9] > 100 µM | [10] > 100 µM | [11] > 100 µM | [12] > 100 µM | [13] > 100 µM | [14] > 100 µM | [15] > 100 µM | [16] > 100 µM

CN(Cc1cnc2c(n1)C(N)=NN(N)N2)c1ccc(C(=O)NC(CCP(=O)(O)O)C(=O)O)cc1 (configuration not stated)
active: [4] 0.637 µM | [8] 0.267 µM | [15] 0.45 µM
inactive: [18] > 100 µM | [2] 1.53 µM | [3] 3.95 µM | [5] 5.14 µM | [6] 5.42 µM | [7] > 63.2 µM | [9] > 31.5 µM | [10] 1.78 µM | [19] 15.3 µM | [11] 3.08 µM | [12] 1.87 µM | [13] 4.53 µM | [14] 2.17 µM | [16] 2.43 µM | [17] 8.02 µM

CO/N=C(\C(=O)Nc1cncs1)c1csc(NC(c2ccccc2)(c2ccccc2)c2ccccc2)n1
inactive: [1] > 10 µM | [18] > 10 µM | [2] > 10 µM | [4] 7.21 µM | [5] 9.4 µM | [6] 3.31 µM | [7] > 10 µM | [8] 3.81 µM | [9] > 10 µM | [19] 8.53 µM | [11] 7.21 µM | [12] 4.56 µM | [13] > 10 µM | [14] > 10 µM | [15] 5 µM | [16] 3.84 µM | [17] > 10 µM

O=C(O)CC1OCC=C2C[N+]3([O-])CCC45c6ccccc6NC4C1C2CC53 (configuration not stated)
inactive: [1] > 100 µM | [18] 17.7 µM | [2] > 100 µM | [3] > 100 µM | [4] > 100 µM | [5] > 100 µM | [6] > 100 µM | [7] > 100 µM | [9] > 100 µM | [10] > 100 µM | [11] > 100 µM | [12] > 100 µM | [13] > 100 µM | [14] > 100 µM | [15] > 100 µM | [16] > 100 µM | [17] > 100 µM

CC(C)(C)c1cc(-c2cc(C(C)(C)C)[nH]n2)[nH]n1
inactive: [1] > 100 µM | [18] > 100 µM | [2] > 100 µM | [3] > 100 µM | [4] 93.3 µM | [6] 96.2 µM | [7] > 100 µM | [8] 39.4 µM | [9] > 100 µM | [10] > 100 µM | [19] > 100 µM | [11] > 100 µM | [12] > 100 µM | [13] > 100 µM | [14] > 100 µM | [15] > 100 µM | [16] > 100 µM

Nc1cc([N+](=O)[O-])ccc1C(=O)N1CCC[C@H]1CO
inactive: [1] > 100 µM | [18] > 100 µM | [2] > 100 µM | [3] > 100 µM | [4] > 100 µM | [5] > 100 µM | [6] > 100 µM | [7] > 100 µM | [8] > 100 µM | [9] > 100 µM | [10] > 100 µM | [11] > 100 µM | [12] > 100 µM | [14] > 100 µM | [15] > 100 µM | [16] > 100 µM | [17] > 100 µM

S=c1c2cn[nH]c2nc2scc(-c3ccc(Cl)cc3)n12
inactive: [18] 18.2 µM | [2] 9.04 µM | [3] 3.78 µM | [4] 11.3 µM | [5] 11.1 µM | [6] 15.6 µM | [7] 16.6 µM | [8] 16.2 µM | [9] 23.5 µM | [10] 16.3 µM | [19] 15.4 µM | [11] > 10 µM | [12] 20.6 µM | [13] 17 µM | [14] 12.9 µM | [15] 14.2 µM | [16] 13 µM | [17] 13.8 µM

COc1ccc(C2SC(C)C(=O)N2c2nc(-c3nc(-c4ccc(Cl)cc4)cs3)cs2)cc1 (configuration not stated)
inactive: [2] > 100 µM | [3] > 100 µM | [4] > 100 µM | [5] > 100 µM | [6] 49.2 µM | [7] > 100 µM | [8] 85.3 µM | [9] > 100 µM | [10] > 100 µM | [19] > 100 µM | [11] > 100 µM | [12] > 100 µM | [13] > 100 µM | [14] > 100 µM | [15] > 100 µM | [16] > 100 µM | [17] > 100 µM
